Laboratory results: patent US20090047304A1, “Composition For Body Fat Reduction” (priority 2004, published 2009)

Tests used:
[1] = Double-blind 6-week intake test of test capsules with walking exercise; rate of body fat and body weight measured; type: in vivo, human; conditions: by intake of astaxanthin, 6 weeks
Method: This Hematococcus alga extract was formed into a capsule containing 6 mg of astaxanthin in terms of the free form (test capsule) and used for test. As placebo capsule (control capsule), a capsule containing 0 mg of astaxanthin and having the same shape was used for test.
32 persons to be tested who were healthy women 23-57 years old were divided at random into two groups i.e. test and control groups, each consisting of 16 persons. The allocation of persons to be tested into test and control groups was conducted in a double-blind method not so as to know persons to be tested and persons participated in test the fact that each of persons to be tested belongs to which group.
Each of persons to be tested in test group took two test capsules a day after supper while each of persons in control group took two placebo capsules a day after supper. The intake period of term (test period of term) was 6 weeks. The rate of body fat and body weight were measured at the beginning (0 week) and the completion (6 weeks) of test for all persons. The rate of body fat was measured with a weighing meter [TBF-511, a product of Tanita Co. Ltd.]
Exercise loaded on all persons to be tested in test period of term was walking. The quantity of exercise was determined by a maximum heart rate countering method. […]

[2] = cited from earlier work
[3] = Takahashi et al.; cited from earlier work

## CC1=C(/C=C/C(C)=C/C=C/C(C)=C/C=C/C=C(C)/C=C/C=C(C)/C=C/C2=C(C)C(=O)C(O)CC2(C)C)C(C)(C)CC(O)C1=O (stereo not drawn) [astaxanthin, 3,3′-dihydroxy-β, β-carotene-4,4′-dione]
[1]
  rate of body fat (in words): decreases
[2]; relative to vitamin E
  antioxidative action, times as strong as vitamin E: about 1000 times
[2]; relative to β-carotene
  antioxidative action, times as strong as β-carotene: about 40 times
[3]
  mutagenicity: has not been observed having any mutagenicity
